US20240391902A1, “Crystalline Form of Compound” (Shenzhen Forward Pharmaceuticals Co., Limited, priority 2020, published 2024)
“Also recorded” adds a separate entry of the source.

Columns and labels:
Type in all cases: physicochemical
[1] = Solid storage stability test; conditions: for chemical and physical stability after storage: solid/25° C./60% RH/open/1 week and/or solid/60° C./closed container/1 week
Experimental: Each amorphous salt solid was weighed (two 2 mg samples were weighed for purity testing after solid storage stability study, and one 10 mg sample was weighed for XRPD testing after solid storage stability study) and placed in a glass vial. In a 25° C./60% RH solid storage stability test, the amorphous salt solid was placed in a 25° C./60% RH constant temperature and humidity chamber, and placed in the dark for 1 week (i.e. “solid/25° C./60% RH/open/1 week”), and in a 60° C. solid storage stability test, the amorphous salt solid was sealed in an oven at 60° C. and heated for 1 week in the dark (i.e. “solid/60° C./closed container/1 week”). Then the sample was taken out for purity testing, crystal form detection and appearance observation, respectively.

[2] = Solid solubility test (2 h and 24 h); conditions: Test ES4: FaSSIF-V1 (pH 6.5); for Solubility measured at 2 h: 37° C., based on free base
Experimental: 5 samples were weighed for each amorphous salt solid (equivalent to 20 mg of free base), and 10 mL of the following solvents were respectively added: 0.1N HCl solution (pH 1.0), 50 mM phosphate buffer (pH 4.5), FeSSIF-V1 (pH 5.0), FaSSIF-V1 (pH 6.5) and SGF (pH 2.0), and stirred at 37° C. for 2 h. The suspension was then centrifuged at 37° C., the supernatant was measured for solubility by HPLC, and the solid fraction was measured for XRPD. The target solubility was at least 2 mg (based on free base)/mL.

[3] = Dynamic solubility test; conditions: for dynamic solubility: room temperature, feeding concentration 10 mg/mL
Experimental: Determination method: According to a feeding concentration of 10 mg/mL, about 50 mg of the sample were weighed and added to 5 mL of the corresponding medium, and the sample was dissolved by rotating at […] at room temperature.

[4] = Test BS1: solid/25° C./60% RH/open/1 week
[5] = Test BS2: solid/60° C./closed container/1 week

C=CC(=O)Nc1cc(Nc2ncnc(-c3cn(C)c4ccccc34)n2)c(OC)cc1N(C)CCN(C)C [Example 5]
Morphology (XRPD crystallinity) [1, 4]: low crystallinity (FIG. | Morphology (agglomeration, appearance) [1, 4]: 94), agglomeration | Morphology (XRPD crystallinity) [1, 5]: amorphous (FIG. 94), | Morphology (agglomeration, appearance) [1, 5]: partial agglomeration | chemical and physical stability after storage ([1]; listed as 2 eq. mesylate salt): physically unstable | chemical and physical stability after storage ([1]; listed as amorphous 2 eq. mesylate salt): physically unstable | physical and chemical stability (in words) ([1]; solid/25° C./60% RH/open/1 week, listed as amorphous 2 eq. mesylate salt): transformed from amorphous to a low crystallinity and showed a certain hygroscopicity (agglomeration) | physical and chemical stability (in words) ([1]; solid/60° C./closed container/1 week, listed as amorphous 2 eq. mesylate salt): a certain hygroscopicity (partial agglomeration) | pH measured at 2 h [2]: (6.2)

C=CC(=O)Nc1cc(Nc2ncnc(-c3cn(C)c4ccccc34)n2)c(OC)cc1N(C)CCN(C)C [Example 6]
Morphology (XRPD crystallinity) [1, 4]: amorphous (FIG. 96), | Morphology (XRPD crystallinity) [1, 5]: amorphous (FIG. 96), | chemical and physical stability after storage ([1]; listed as 1 eq. besylate salt): chemically unstable | chemical and physical stability after storage ([1]; listed as amorphous 1 eq. besylate salt): chemically unstable | physical and chemical stability (in words) ([1]; solid/60° C./closed container/1 week, listed as amorphous 1 eq. besylate salt): good physical and chemical stability

C=CC(=O)Nc1cc(Nc2ncnc(-c3cn(C)c4ccccc34)n2)c(OC)cc1N(C)CCN(C)C [Example 7]
Color [1, 4]: slight color change | Color [1, 5]: no color change | Morphology (XRPD crystallinity) [1, 5]: amorphous (FIG. 98), | Morphology (agglomeration, appearance) [1, 5]: no agglomeration | chemical and physical stability after storage ([1]; listed as 2 eq. besylate salt): physically unstable | chemical and physical stability after storage ([1]; listed as amorphous 2 eq. besylate salt): physically unstable | physical and chemical stability (in words) ([1]; solid/25° C./60% RH/open/1 week, listed as amorphous 2 eq. besylate salt): slight color change and showed significant hygroscopicity (caking and fusion to a glassy state) | physical and chemical stability (in words) ([1]; solid/60° C./closed container/1 week, listed as amorphous 2 eq. besylate salt): good physical and chemical stability | pH measured at 2 h [2]: (6.1) | Solubility measured at 2 h [2]: >2000 µg/mL

C=CC(=O)Nc1cc(Nc2ncnc(-c3cn(C)c4ccccc34)n2)c(OC)cc1N(C)CCN(C)C [Example 8]
Color [1, 4]: no color change | Color [1, 5]: no color change | Morphology (XRPD crystallinity) [1, 5]: amorphous (FIG. 100), | Morphology (agglomeration, appearance) [1, 5]: no agglomeration | chemical and physical stability after storage ([1]; listed as 1 eq. esylate salt): physically unstable | chemical and physical stability after storage ([1]; listed as amorphous 1 eq. esylate salt): physically unstable | physical and chemical stability (in words) ([1]; solid/25° C./60% RH/open/1 week, listed as amorphous 1 eq. esylate salt): significant hygroscopicity (caking and fusion to a glassy state) | physical and chemical stability (in words) ([1]; solid/60° C./closed container/1 week, listed as amorphous 1 eq. esylate salt): good physical and chemical stability | pH measured at 2 h [2]: (6.4) | Solubility measured at 2 h [2]: >2000 µg/mL

C=CC(=O)Nc1cc(Nc2ncnc(-c3cn(C)c4ccccc34)n2)c(OC)cc1N(C)CCN(C)C [Example 9]
Color [1, 4]: slight color change | Morphology (XRPD crystallinity) [1, 4]: amorphous (FIG. 101), | Morphology (agglomeration, appearance) [1, 4]: agglomeration (FIG. 102) | Color [1, 5]: no color change | Morphology (XRPD crystallinity) [1, 5]: low crystallinity | chemical and physical stability after storage ([1]; listed as 1 eq. maleate salt): chemically unstable; also recorded: physically unstable | chemical and physical stability after storage ([1]; listed as amorphous 1 eq. maleate salt): chemically unstable; also recorded: physically unstable | physical and chemical stability (in words) ([1]; solid/25° C./60% RH/open/1 week, listed as amorphous 1 eq. maleate salt): slight color change and showed a certain hygroscopicity (agglomeration) | physical and chemical stability (in words) ([1]; solid/60° C./closed container/1 week, listed as amorphous 1 eq. maleate salt): transformed from amorphous to a low crystallinity | pH measured at 2 h [2]: (6.1) | Solubility measured at 2 h [2]: >2000 µg/mL

C=CC(=O)Nc1cc(Nc2ncnc(-c3cn(C)c4ccccc34)n2)c(OC)cc1N(C)CCN(C)C [Example 22]
dynamic solubility ([3]; FaSSIF, 0.5 h, listed as crystaline form II-A of mesylate salt): 6600 µg/mL | dynamic solubility ([3]; FaSSIF, 1 h, listed as crystaline form II-A of mesylate salt): 6200 µg/mL | dynamic solubility ([3]; FaSSIF, 2 h, listed as crystaline form II-A of mesylate salt): 7000 µg/mL | dynamic solubility ([3]; FaSSIF, 4 h, listed as crystaline form II-A of mesylate salt): 6900 µg/mL | dynamic solubility ([3]; FaSSIF, 24 h, listed as crystaline form II-A of mesylate salt): 9900 µg/mL | dynamic solubility ([3]; SGF, 0.5 h, listed as crystaline form II-A of mesylate salt): >10000 µg/mL | dynamic solubility ([3]; SGF, 1 h, listed as crystaline form II-A of mesylate salt): >10000 µg/mL | dynamic solubility ([3]; SGF, 2 h, listed as crystaline form II-A of mesylate salt): >10000 µg/mL | dynamic solubility ([3]; SGF, 4 h, listed as crystaline form II-A of mesylate salt): >10000 µg/mL | dynamic solubility ([3]; SGF, 24 h, listed as crystaline form II-A of mesylate salt): >10000 µg/mL | solubility ([3]; water, SGF, FaSSIF and FeSSIF, thermodynamic from solid, water, SGF, FaSSIF and FeSSIF, all time points, read-out: dynamic solubility in water, SGF, FaSSIF and FeSSIF (conclusion)): > 4000 µg/mL

C=CC(=O)Nc1cc(Nc2ncnc(-c3cn(C)c4ccccc34)n2)c(OC)cc1N(C)CCN(C)C [Example 23]
dynamic solubility ([3]; FaSSIF, 0.5 h, listed as crystaline form III-A of hydrochloride salt): 5300 µg/mL | dynamic solubility ([3]; FaSSIF, 1 h, listed as crystaline form III-A of hydrochloride salt): 5200 µg/mL | dynamic solubility ([3]; FaSSIF, 2 h, listed as crystaline form III-A of hydrochloride salt): 5000 µg/mL | dynamic solubility ([3]; FaSSIF, 4 h, listed as crystaline form III-A of hydrochloride salt): 5000 µg/mL | dynamic solubility ([3]; FaSSIF, 24 h, listed as crystaline form III-A of hydrochloride salt): 8200 µg/mL | dynamic solubility ([3]; SGF, 0.5 h, listed as crystaline form III-A of hydrochloride salt): >10000 µg/mL | dynamic solubility ([3]; SGF, 1 h, listed as crystaline form III-A of hydrochloride salt): >10000 µg/mL | dynamic solubility ([3]; SGF, 2 h, listed as crystaline form III-A of hydrochloride salt): >10000 µg/mL | dynamic solubility ([3]; SGF, 4 h, listed as crystaline form III-A of hydrochloride salt): >10000 µg/mL | dynamic solubility ([3]; SGF, 24 h, listed as crystaline form III-A of hydrochloride salt): >10000 µg/mL

C=CC(=O)Nc1cc(Nc2ncnc(-c3cn(C)c4ccccc34)n2)c(OC)cc1N(C)CCN(C)C [Example 24]
dynamic solubility ([3]; FaSSIF, 0.5 h, listed as crystaline form IV-C of maleate salt): 6100 µg/mL | dynamic solubility ([3]; FaSSIF, 1 h, listed as crystaline form IV-C of maleate salt): 6200 µg/mL | dynamic solubility ([3]; SGF, 0.5 h, listed as crystaline form IV-C of maleate salt): >10000 µg/mL | dynamic solubility ([3]; SGF, 1 h, listed as crystaline form IV-C of maleate salt): >10000 µg/mL | dynamic solubility ([3]; SGF, 2 h, listed as crystaline form IV-C of maleate salt): >10000 µg/mL | dynamic solubility ([3]; SGF, 4 h, listed as crystaline form IV-C of maleate salt): >10000 µg/mL | dynamic solubility ([3]; SGF, 24 h, listed as crystaline form IV-C of maleate salt): >10000 µg/mL
